Assay: xn = mol fraction of the nth substance listed, in the solute-free solvent

Cc1ccc2cc(Br)ccc2n1 + CN(C)C=O + O
solubility (g/100 g solution)
Details	278.15 K	283.15 K	288.15 K	293.15 K	298.15 K	303.15 K	308.15 K	313.15 K	318.15 K	323.15 K
x2 = 0.02666	0.101	0.115	0.132	0.15	0.17	0.192	0.22	0.251	0.284	0.323
x2 = 0.05806	0.422	0.471	0.529	0.591	0.66	0.737	0.832	0.936	1.05	1.18
x2 = 0.09556	0.867	0.964	1.07	1.19	1.32	1.47	1.66	1.86	2.08	2.34
x2 = 0.1412	1.17	1.3	1.45	1.61	1.79	2	2.27	2.55	2.86	3.23
x2 = 0.1978	1.23	1.39	1.57	1.77	1.98	2.23	2.52	2.87	3.25	3.69
x2 = 0.27	1.27	1.43	1.63	1.85	2.11	2.39	2.74	3.13	3.57	4.1
x2 = 0.3652	1.38	1.58	1.8	2.04	2.31	2.62	2.99	3.45	3.97	4.61
x2 = 0.4965	1.52	1.77	2.05	2.31	2.62	3.01	3.5	4.08	4.7	5.46
x2 = 0.6893	1.67	1.91	2.2	2.61	2.99	3.44	3.98	4.63	5.36	6.25

CC(=O)Oc1cccc2c1C(=O)c1c(OC(C)=O)cc(C(=O)O)cc1C2=O + CC(=O)N(C)C + O
solubility (g/100 g solution)
Details	x2 = 0.02247	x2 = 0.04917	x2 = 0.08143	x2 = 0.1212	x2 = 0.1714	x2 = 0.2368	x2 = 0.3255	x2 = 0.4528	x2 = 0.6506
278.15 K	0.00282	0.0125	0.0358	0.0823	0.255	0.368	0.38	0.452	0.496
283.15 K	0.00402	0.0162	0.0459	0.107	0.313	0.441	0.521	0.622	0.691
288.15 K	0.00537	0.0204	0.0587	0.137	0.374	0.525	0.683	0.821	0.927
293.15 K	0.00727	0.0256	0.0748	0.173	0.444	0.633	0.885	1.07	1.18
298.15 K	0.00929	0.0324	0.0937	0.219	0.532	0.779	1.12	1.35	1.47
303.15 K	0.0112	0.0405	0.119	0.274	0.633	0.95	1.38	1.69	1.81
308.15 K	0.0139	0.0502	0.149	0.343	0.746	1.16	1.7	2.1	2.29
313.15 K	0.0168	0.0643	0.184	0.429	0.862	1.44	2.04	2.54	2.83

NCCS(=O)(=O)O + O + OCCO
solubility (g/100 g solution)
Details	298.15 K	303.15 K	308.15 K	313.15 K	318.15 K
x2 = 0.775	1.2	1.44	1.68	2.16	2.27
x2 = 0.8378	1.63	1.92	2.28	2.83	3.17
x2 = 0.8893	2.24	2.94	3.18	3.64	4.08
x2 = 0.9323	3.39	4.12	4.67	5.48	6.21
x2 = 0.9688	5.08	6.22	7.45	8.66	10.1

Source: the CheMixHub drug solubility set
